This passage reports IC50 results from US11174252B2, “Heterocyclic compounds as kinase inhibitors” (priority 2018, dated 2021).

Where two headings read alike, the source gives them in different places. Bounds are passed on as bounds.

Experiment [1] deals with CDK6 (Homo sapiens (Human), UniProt Q00534). The experiment can be described thus: biochemical. Format: biochemical.
The subject of experiment [2] is DU4475. The experiment can be described thus: Cancer cell proliferation assay, single agent. The conditions noted are these: Homo sapiens. Format: cell-based.
For experiment [3], the target named is CDK4 (Homo sapiens (Human), UniProt P11802). In words: In vitro kinase inhibition, luminescence (ADP-Glo) with retinoblastoma substrate. Format: biochemical. A general note: ADP-Glo first removes unused ATP, then detects ADP through luciferase.
Sequence of CDK4 (P11802 whole entry): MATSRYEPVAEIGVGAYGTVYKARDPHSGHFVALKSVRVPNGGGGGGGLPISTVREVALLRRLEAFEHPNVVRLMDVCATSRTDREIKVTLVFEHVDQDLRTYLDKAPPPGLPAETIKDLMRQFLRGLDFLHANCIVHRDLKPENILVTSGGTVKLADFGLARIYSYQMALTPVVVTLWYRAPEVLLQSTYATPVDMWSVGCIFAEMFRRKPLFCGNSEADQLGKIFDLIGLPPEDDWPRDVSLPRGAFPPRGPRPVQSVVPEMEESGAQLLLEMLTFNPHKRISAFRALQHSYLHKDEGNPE
Sequence of CDK4 (P24385 whole entry partner): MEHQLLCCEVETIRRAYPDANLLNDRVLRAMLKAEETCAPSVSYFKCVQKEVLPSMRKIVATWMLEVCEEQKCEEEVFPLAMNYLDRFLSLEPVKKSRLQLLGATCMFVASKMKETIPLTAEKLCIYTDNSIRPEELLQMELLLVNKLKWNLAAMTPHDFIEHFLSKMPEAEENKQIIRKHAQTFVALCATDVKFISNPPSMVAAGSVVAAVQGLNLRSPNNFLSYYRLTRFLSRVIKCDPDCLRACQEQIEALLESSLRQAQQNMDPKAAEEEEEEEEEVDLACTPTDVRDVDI
Experiment [4] deals with MCF-7. In words: Cancer cell proliferation assay, single agent. Format: cell-based. The settings on record: Homo sapiens.
The target in experiment [5] is FMS kinase (Homo sapiens (Human), UniProt P07333). In words: LanthaScreen kinase assay (ATP, fluorescent-PolyGT substrate, TR-FRET). Format: biochemical. (TR-FRET usually uses a lanthanide donor and a delayed reading to cut background.)
Sequence of FMS kinase (P07333 20-972): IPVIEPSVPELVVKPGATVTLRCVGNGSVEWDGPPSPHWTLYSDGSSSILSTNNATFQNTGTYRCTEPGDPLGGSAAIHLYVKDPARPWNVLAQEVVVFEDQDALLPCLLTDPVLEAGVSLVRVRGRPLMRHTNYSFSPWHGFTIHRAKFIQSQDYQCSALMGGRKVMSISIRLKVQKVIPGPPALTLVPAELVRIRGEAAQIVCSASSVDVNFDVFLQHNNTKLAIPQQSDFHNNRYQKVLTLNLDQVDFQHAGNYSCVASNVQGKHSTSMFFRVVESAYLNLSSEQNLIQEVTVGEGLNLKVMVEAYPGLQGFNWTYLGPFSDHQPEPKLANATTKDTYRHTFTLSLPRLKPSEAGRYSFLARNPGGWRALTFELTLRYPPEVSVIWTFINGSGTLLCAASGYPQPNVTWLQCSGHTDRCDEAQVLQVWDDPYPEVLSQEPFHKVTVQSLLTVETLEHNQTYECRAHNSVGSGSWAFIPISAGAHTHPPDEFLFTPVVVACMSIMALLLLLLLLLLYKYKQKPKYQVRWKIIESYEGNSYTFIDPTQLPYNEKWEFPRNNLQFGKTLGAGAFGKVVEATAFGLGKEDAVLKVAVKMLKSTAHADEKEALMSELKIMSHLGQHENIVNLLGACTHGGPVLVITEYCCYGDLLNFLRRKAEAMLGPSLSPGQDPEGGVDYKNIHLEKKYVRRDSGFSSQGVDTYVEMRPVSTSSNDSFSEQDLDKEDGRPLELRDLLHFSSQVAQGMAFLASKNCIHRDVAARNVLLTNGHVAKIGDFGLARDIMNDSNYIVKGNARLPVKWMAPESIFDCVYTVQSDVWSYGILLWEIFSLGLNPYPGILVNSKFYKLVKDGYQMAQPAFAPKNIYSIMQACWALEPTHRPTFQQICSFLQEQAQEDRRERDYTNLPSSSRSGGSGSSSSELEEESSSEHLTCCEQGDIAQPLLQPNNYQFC
The target of experiment [6] is PI3Kδ kinase (Homo sapiens (Human), UniProt O00329). In words: PI3Kδ kinase ADP-Glo assay (Reaction Biology Corporation). The conditions noted are these: read-out: PI3Kδ IC50.
Sequence of PI3Kδ kinase (O00329 whole entry): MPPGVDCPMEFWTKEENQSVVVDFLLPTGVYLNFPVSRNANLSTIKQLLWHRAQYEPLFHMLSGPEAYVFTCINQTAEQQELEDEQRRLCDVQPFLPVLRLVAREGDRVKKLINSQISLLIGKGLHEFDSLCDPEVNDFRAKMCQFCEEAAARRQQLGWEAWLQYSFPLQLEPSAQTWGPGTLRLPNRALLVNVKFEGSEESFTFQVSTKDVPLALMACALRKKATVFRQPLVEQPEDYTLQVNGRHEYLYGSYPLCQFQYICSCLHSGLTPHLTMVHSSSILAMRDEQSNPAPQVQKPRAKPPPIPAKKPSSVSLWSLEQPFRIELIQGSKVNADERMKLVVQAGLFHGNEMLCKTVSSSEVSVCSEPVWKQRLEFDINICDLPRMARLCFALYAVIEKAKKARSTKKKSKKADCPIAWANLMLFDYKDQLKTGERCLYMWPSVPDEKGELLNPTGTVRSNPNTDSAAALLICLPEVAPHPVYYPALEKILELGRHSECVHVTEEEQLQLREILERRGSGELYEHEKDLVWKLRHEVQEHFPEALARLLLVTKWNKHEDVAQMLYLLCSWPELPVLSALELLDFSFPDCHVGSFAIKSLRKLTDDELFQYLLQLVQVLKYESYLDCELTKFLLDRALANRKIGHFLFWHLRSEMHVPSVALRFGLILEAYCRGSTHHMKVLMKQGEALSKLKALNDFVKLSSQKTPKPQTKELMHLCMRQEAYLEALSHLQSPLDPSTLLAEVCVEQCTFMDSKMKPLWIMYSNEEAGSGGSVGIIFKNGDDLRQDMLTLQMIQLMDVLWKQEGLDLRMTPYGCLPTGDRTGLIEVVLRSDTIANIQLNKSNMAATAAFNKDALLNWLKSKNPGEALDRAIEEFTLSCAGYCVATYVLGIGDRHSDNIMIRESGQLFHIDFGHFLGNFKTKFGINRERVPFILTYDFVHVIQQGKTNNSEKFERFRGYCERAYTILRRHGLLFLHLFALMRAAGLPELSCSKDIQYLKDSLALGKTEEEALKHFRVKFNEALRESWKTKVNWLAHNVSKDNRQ
Sequence of PI3Kδ kinase (P27986 whole entry partner): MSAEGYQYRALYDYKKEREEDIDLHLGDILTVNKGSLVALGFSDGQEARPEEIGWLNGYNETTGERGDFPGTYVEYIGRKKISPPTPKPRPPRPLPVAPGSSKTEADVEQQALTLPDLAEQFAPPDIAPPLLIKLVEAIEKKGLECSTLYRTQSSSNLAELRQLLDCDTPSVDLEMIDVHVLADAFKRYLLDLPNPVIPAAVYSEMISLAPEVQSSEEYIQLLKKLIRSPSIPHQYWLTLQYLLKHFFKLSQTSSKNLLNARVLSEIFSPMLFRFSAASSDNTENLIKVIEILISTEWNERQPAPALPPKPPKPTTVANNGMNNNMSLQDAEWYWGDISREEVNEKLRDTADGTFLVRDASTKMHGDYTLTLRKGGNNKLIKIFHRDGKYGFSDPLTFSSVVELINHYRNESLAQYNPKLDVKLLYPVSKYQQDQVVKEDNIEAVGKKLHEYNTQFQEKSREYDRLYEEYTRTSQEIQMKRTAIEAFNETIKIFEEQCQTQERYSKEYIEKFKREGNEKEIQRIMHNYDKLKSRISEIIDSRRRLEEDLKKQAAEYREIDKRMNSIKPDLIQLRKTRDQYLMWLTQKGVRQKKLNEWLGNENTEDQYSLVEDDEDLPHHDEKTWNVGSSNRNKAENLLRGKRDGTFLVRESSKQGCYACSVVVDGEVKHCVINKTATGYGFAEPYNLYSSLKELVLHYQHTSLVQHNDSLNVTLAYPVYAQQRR
Where [7] appears, read: DU-4475, DU4475 cells, treated for 24-168 hours, read-out: IC50 (nM) DU4475.
The mark [8] stands for this setting: MCF7, MCF-7 cells, treated for 24-168 hours, read-out: IC50 (nM) MCF-7.
Setting [9] is: DU-4475, read-out: IC50 (nM) DU4475.
The mark [10] stands for this setting: MCF7, read-out: IC50 (nM) MCF-7.

Consider `CC(C)N1CCOc2c(F)cc(-c3nc(Nc4ccc(C5CCN(C)CC5)nn4)ncc3F)cc21` [Compound 517, N-(5-fluoro-4-(8-fluoro-4-isopropyl-3,4-dihydro-2H-benzo[b][1,4]oxazin-6-yl)pyrimidin-2-yl)-6-(1-methylpiperidin-4-yl)pyridazin-3-amine], for which the IC50 (as a rule, the midpoint of a concentration-inhibition curve) in experiment [1] was found to be 4 nM; in experiment [2] (setting [7]), 275 nM; in experiment [3] it was 1.5 nM; in experiment [4] (setting [8]) it was 108 nM.

As for `Cc1nc(Nc2ncc(F)c(-c3cc(F)c4c(c3)N(C(C)C)CCO4)n2)ccc1C1CCN(C)CC1` [Compound 503, 5-fluoro-4-(8-fluoro-4-isopropyl-3,4-dihydro-2H-benzo[b][1,4]oxazin-6-yl)-N-(6-methyl-5-(1-methylpiperidin-4-yl)pyridin-2-yl)pyrimidin-2-amine], the IC50 in experiment [1] is 18 nM; in experiment [2] (setting [7]), 1260 nM; in experiment [3] it was 5 nM; in experiment [4] (setting [8]), 240 nM.

On to `CC(C)N1CCOc2c(F)cc(-c3nc(Nc4ccc(C(=O)N5CCC(O)CC5)c(F)c4)ncc3F)cc21` [Compound 458, (2-fluoro-4-((5-fluoro-4-(8-fluoro-4-isopropyl-3,4-dihydro-2H-benzo[b][1,4]oxazin-6-yl)pyrimidin-2-yl)amino)phenyl)(4-hydroxypiperidin-1-yl)methanone], for which the IC50 was 10 nM in experiment [1]; 29 nM in experiment [5]; 35 nM in experiment [2] (setting [9]); 0.5 nM in experiment [3]; 30 nM in experiment [4] (setting [8]).

On to `CC(C)N1CCOc2c(F)cc(-c3nc(Nc4ccc(CN5CCN(CC6CC6)CC5)cn4)ncc3F)cc21` [Compound 516, N-(5-((4-(cyclopropylmethyl)piperazin-1-yl)methyl)pyridin-2-yl)-5-fluoro-4-(8-fluoro-4-isopropyl-3,4-dihydro-2H-benzo[b][1,4]oxazin-6-yl)pyrimidin-2-amine], for which the IC50 in experiment [1] was 4 nM; in experiment [2] (setting [7]), 995 nM; in experiment [3], 1 nM; in experiment [4] (setting [8]) it was 155 nM.

Consider `CC(C)N1CCOc2c(F)cc(-c3nc(Nc4ccc(S(=O)(=O)NC5CCNCC5)cc4)ncc3F)cc21` [Compound 791, 4-((5-fluoro-4-(8-fluoro-4-isopropyl-3,4-dihydro-2H-benzo[b][1,4]oxazin-6-yl)pyrimidin-2-yl)amino)-N-(piperidin-4-yl)benzenesulfonamide], for which the IC50 in experiment [1] was 41 nM; in experiment [2] (setting [7]), 205 nM; in experiment [3] it was 9 nM; in experiment [4] (setting [8]), 90 nM.

In the case of `CC(C)N1CCOc2c(F)cc(-c3nc(Nc4ccc(CN5CCN(C)CC5)c(F)c4)ncc3F)cc21` [Compound 792, 5-fluoro-N-(3-fluoro-4-((4-methylpiperazin-1-yl)methyl)phenyl)-4-(8-fluoro-4-isopropyl-3,4-dihydro-2H-benzo[b][1,4]oxazin-6-yl)pyrimidin-2-amine], the IC50 in experiment [1] was 4 nM; in experiment [2] (setting [9]), 75 nM; in experiment [3] it was 4 nM; in experiment [4] (setting [8]), 32 nM.

Take `CC(C)N1CCOc2c(F)cc(-c3nc(Nc4ccc(C5CCN(C(=O)CO)CC5)cn4)ncc3F)cc21` [Compound 510, 1-(4-(6-((5-fluoro-4-(8-fluoro-4-isopropyl-3,4-dihydro-2H-benzo[b][1,4]oxazin-6-yl)pyrimidin-2-yl)amino)pyridin-3-yl)piperidin-1-yl)-2-hydroxyethan-1-one]: the IC50 amounted to 4 nM in experiment [1], 1970 nM in experiment [2] (setting [9]), 3 nM in experiment [3] and 293 nM in experiment [4] (setting [10]).

With `CC(C)N1CCOc2c(F)cc(-c3nc(Nc4ccc(C(=O)N5CCOCC5)c(F)c4)ncc3F)cc21` [Compound 457, (2-fluoro-4-((5-fluoro-4-(8-fluoro-4-isopropyl-3,4-dihydro-2H-benzo[b][1,4]oxazin-6-yl)pyrimidin-2-yl)amino)phenyl)(morpholino)methanone], the IC50 in experiment [1] was found to be 7.5 nM; in experiment [5], 68 nM; in experiment [2] (setting [7]), 30 nM; in experiment [3] it was 3.5 nM; in experiment [4] (setting [8]), 55 nM.

On to `CC(C)N1CCOc2c(F)cc(-c3nc(Nc4ccc(CN5CCC(N(C)C)CC5)c(F)c4)ncc3F)cc21` [Compound 462, N-(4-((4-(dimethylamino)piperidin-1-yl)methyl)-3-fluorophenyl)-5-fluoro-4-(8-fluoro-4-isopropyl-3,4-dihydro-2H-benzo[b][1,4]oxazin-6-yl)pyrimidin-2-amine], for which the IC50 in experiment [1] worked out at 9 nM; in experiment [5], 25 nM; in experiment [2] (setting [7]), 65 nM; in experiment [3] it was 5.5 nM; in experiment [4] (setting [8]), 40 nM.

In the case of `CC(C)N1CCOc2c(F)cc(-c3nc(Nc4ccc(C(N)=O)cn4)ncc3F)cc21` [Compound 521, 6-((5-fluoro-4-(8-fluoro-4-isopropyl-3,4-dihydro-2H-benzo[b][1,4]oxazin-6-yl)pyrimidin-2-yl)amino)nicotinamide], the IC50 in experiment [1] was 19.8 nM; in experiment [2] (setting [7]) it was 7700 nM; in experiment [3] it was 5.5 nM; in experiment [4] (setting [8]), 3670 nM.

For the compound `CC(C)N1CCOc2c(F)cc(-c3nc(Nc4ccc(N5CCC(N)CC5)cn4)ncc3F)cc21` [Compound 788, N-(5-(4-aminopiperidin-1-yl)pyridin-2-yl)-5-fluoro-4-(8-fluoro-4-isopropyl-3,4-dihydro-2H-benzo[b][1,4]oxazin-6-yl)pyrimidin-2-amine], the IC50 in experiment [1] came out at 4 nM; in experiment [2] (setting [9]) it was 920 nM; in experiment [3], 2 nM; in experiment [4] (setting [8]) it was 130 nM.

Take `CCN1CCN(C(=O)c2ccc(Nc3ncc(F)c(-c4cc(F)c5c(c4)N(C(C)C)CCO5)n3)cc2F)CC1` [Compound 464, (4-ethylpiperazin-1-yl)(2-fluoro-4-((5-fluoro-4-(8-fluoro-4-isopropyl-3,4-dihydro-2H-benzo[b][1,4]oxazin-6-yl)pyrimidin-2-yl)amino)phenyl)methanone]: the 50% inhibitory concentration (IC50) stood at 22 nM in experiment [1]; 42 nM in experiment [5]; 80 nM in experiment [2] (setting [7]); 8.5 nM in experiment [3]; 85 nM in experiment [4] (setting [8]).

Regarding `CCN1CCC(c2ccc(Nc3ncc(F)c(-c4cc(F)c5c(c4)N(C(C)C)CCO5)n3)nc2)CC1` [Compound 501, N-(5-(1-ethylpiperidin-4-yl)pyridin-2-yl)-5-fluoro-4-(8-fluoro-4-isopropyl-3,4-dihydro-2H-benzo[b][1,4]oxazin-6-yl)pyrimidin-2-amine], the IC50 in experiment [1] was 5 nM; in experiment [2] (setting [9]), 1020 nM; in experiment [3] it was 2 nM; in experiment [4] (setting [10]) it was 140 nM.

Consider `CC(C)N1CCOc2c(F)cc(-c3nc(Nc4ccc(N5CCSCC5)c(F)c4)ncc3F)cc21` [Compound 469, 5-fluoro-4-(8-fluoro-4-isopropyl-3,4-dihydro-2H-benzo[b][1,4]oxazin-6-yl)-N-(3-fluoro-4-thiomorpholinophenyl)pyrimidin-2-amine], for which the IC50 in experiment [6] is over 30000 nM; in experiment [5] it was 46 nM; in experiment [4] (setting [8]) it was 495 nM.

`CC(C)N1CCOc2c(F)cc(-c3nc(Nc4ccc(S(=O)(=O)N5CCN(C)CC5)cc4)ncc3F)cc21` [Compound 522, 5-fluoro-4-(8-fluoro-4-isopropyl-3,4-dihydro-2H-benzo[b][1,4]oxazin-6-yl)-N-(4-((4-methylpiperazin-1-yl)sulfonyl)phenyl)pyrimidin-2-amine]: the IC50 is 105 nM in experiment [1], 395 nM in experiment [2] (setting [7]), 36 nM in experiment [3] and 345 nM in experiment [4] (setting [8]).

Consider `CCN1CCN(Cc2ccc(Nc3ncc(F)c(-c4cc(F)c5c(c4)N(C(C)C)CCO5)n3)cc2F)CC1` [Compound 461, N-(4-((4-ethylpiperazin-1-yl)methyl)-3-fluorophenyl)-5-fluoro-4-(8-fluoro-4-isopropyl-3,4-dihydro-2H-benzo[b][1,4]oxazin-6-yl)pyrimidin-2-amine], for which the IC50 came to 9 nM in experiment [1]; 17 nM in experiment [5]; 50 nM in experiment [2] (setting [7]); 3.5 nM in experiment [3]; 30 nM in experiment [4] (setting [8]).

As for `CC1CN(c2ccc(Nc3ncc(F)c(-c4cc(F)c5c(c4)N(C(C)C)CCO5)n3)nc2)CC(C)O1` (centres unmarked) [Compound 515, N-(5-(2,6-dimethylmorpholino)pyridin-2-yl)-5-fluoro-4-(8-fluoro-4-isopropyl-3,4-dihydro-2H-benzo[b][1,4]oxazin-6-yl)pyrimidin-2-amine], the IC50 is over 200 nM in experiment [1], over 10000 nM in experiment [2] (setting [7]), 145 nM in experiment [3] and 2500 nM in experiment [4] (setting [8]).

On to `CC(C)N1CCOc2c(F)cc(-c3nc(Nc4ccc(N5CCNCC5)nc4)ncc3F)cc21` [Compound 23, 5-fluoro-4-(8-fluoro-4-isopropyl-3,4-dihydro-2H-benzo[b][1,4]oxazin-6-yl)-N-(6-(piperazin-1-yl)pyridin-3-yl)pyrimidin-2-amine], for which the IC50 is 4880 nM in experiment [6], 25 nM in experiment [5] and under 10 nM in experiment [4] (setting [10]).

On to `CC(C)N1CCOc2c(F)cc(-c3nc(Nc4ccc(C(=O)N5CCC(N(C)C)CC5)c(F)c4)ncc3F)cc21` [Compound 463, (4-(dimethylamino)piperidin-1-yl)(2-fluoro-4-((5-fluoro-4-(8-fluoro-4-isopropyl-3,4-dihydro-2H-benzo[b][1,4]oxazin-6-yl)pyrimidin-2-yl)amino)phenyl)methanone], for which the IC50 in experiment [1] is 3.5 nM; in experiment [5] it was 17 nM; in experiment [2] (setting [7]), 25 nM; in experiment [3], 1.5 nM; in experiment [4] (setting [8]) it was 20 nM.
